Experimental data: patent US7923025B2, “Pharmaceutical composition for oral use with improved absorption” (Astellas Pharma Inc., priority 2003, dated 2011)

Assay: Gastrointestinal absorption of insulin, rat intestinal loop, plasma glucose (Experiment 1)
Format: in vivo, Wistar male rats
Method: Then 0.25 ml blood was collected from the jugular vein 0, 0.5, 1, 1.5, 2 and 3 hours after administration and the plasma glucose concentration was determined. The reduction in the plasma glucose concentration (D, % of initial*h) up to three hours after administration was calculated with the plasma glucose concentration before administration being 100. D was calculated by subtracting the plasma glucose area under concentration (% of initial*h) up to 3 hours after administration from the AUC with administration of normal saline only.
On the other hand, by way of comparison, a liquid of 6 mg bovine insulin dissolved in 20 ml normal saline liquid was administered to a large intestine loop in an amount corresponding to 600 μg/kg insulin, or as the control, 2 ml normal saline were administered to a large intestine loop and the plasma glucose concentration was determined as described above (Glucose CII Test Wako, Wako Pure Chemical Industries, Ltd.).

Comparison (E-SD not administered): 6 mg bovine insulin dissolved in 20 ml normal saline, without E-SD
AUC (plasma glucose) (rat intestinal loop, up to 3 hours after administration): 368.84 ± 63.19 % of initial*h | D (reduction in the plasma glucose concentration) (up to 3 hours, AUC with normal saline only minus AUC): 13.00 % of initial*h
